Measurements taken from article PMC9329436, “Optimization of the 4-anilinoquin(az)oline scaffold as epidermal growth factor receptor (EGFR) inhibitors for chordoma utilizing a toxicology profiling assay platform” (Scientific Reports, 2022).

What was measured:
Assay in all cases: 33PanQinase activity assay
Format in all cases: biochemical
[1] = target: Aurora-B (Homo sapiens, UniProt Q96GD4); conditions: for Residual activity: Aurora-B, singlicate
Source text: (§1) Table S4. Profiling of two compounds at two concentrations against 320 wild-type protein kinases; singlicate measurement; Residual activities (% of control).

[2] = target: T1, EPHA6 (Homo sapiens, UniProt Q9UF33); conditions: for Residual activity: singlicate
T1 sequence (Q9UF33 23-1036): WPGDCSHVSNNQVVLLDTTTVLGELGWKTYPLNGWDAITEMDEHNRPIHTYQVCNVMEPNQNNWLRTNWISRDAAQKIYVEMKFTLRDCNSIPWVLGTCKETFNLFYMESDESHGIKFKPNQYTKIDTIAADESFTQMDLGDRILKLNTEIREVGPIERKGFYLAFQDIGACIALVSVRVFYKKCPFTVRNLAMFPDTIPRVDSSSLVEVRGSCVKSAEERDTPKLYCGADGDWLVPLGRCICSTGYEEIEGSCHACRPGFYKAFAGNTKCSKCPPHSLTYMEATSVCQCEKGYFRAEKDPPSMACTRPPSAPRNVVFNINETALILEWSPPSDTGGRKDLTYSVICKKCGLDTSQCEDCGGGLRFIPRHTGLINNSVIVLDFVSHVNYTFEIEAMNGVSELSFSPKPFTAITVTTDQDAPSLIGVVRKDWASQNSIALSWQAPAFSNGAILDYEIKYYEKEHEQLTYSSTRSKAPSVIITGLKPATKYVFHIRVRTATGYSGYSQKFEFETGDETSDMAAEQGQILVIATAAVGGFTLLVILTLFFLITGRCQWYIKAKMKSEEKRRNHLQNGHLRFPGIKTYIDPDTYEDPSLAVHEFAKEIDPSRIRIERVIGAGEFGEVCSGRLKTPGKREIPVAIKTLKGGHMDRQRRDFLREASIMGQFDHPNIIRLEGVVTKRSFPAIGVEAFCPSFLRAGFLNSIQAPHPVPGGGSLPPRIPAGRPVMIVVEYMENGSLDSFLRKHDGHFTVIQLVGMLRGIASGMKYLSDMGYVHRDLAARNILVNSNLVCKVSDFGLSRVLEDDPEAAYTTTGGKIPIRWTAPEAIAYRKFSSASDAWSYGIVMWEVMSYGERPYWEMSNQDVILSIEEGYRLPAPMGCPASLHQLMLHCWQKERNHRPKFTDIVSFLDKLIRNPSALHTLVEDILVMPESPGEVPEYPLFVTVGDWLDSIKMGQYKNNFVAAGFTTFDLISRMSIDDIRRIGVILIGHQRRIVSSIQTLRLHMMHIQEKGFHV
Source text: as §1

[3] = target: NIK (Homo sapiens, UniProt Q99558); conditions: for Residual activity: NIK, singlicate
Source text: as §1

[4] = target: RIPK2 (Homo sapiens, UniProt O43353); conditions: for Residual activity, RIPK2: kinase RIPK2, singlicate
Source text: as §1

[5] = target: ERBB2 (Homo sapiens, UniProt P04626); conditions: for Residual activity: singlicate
Source text: as §1

[6] = target: T2, DDR2 (Homo sapiens, UniProt Q16832); conditions: for Residual activity: singlicate
T2 sequence (Q16832 22-855): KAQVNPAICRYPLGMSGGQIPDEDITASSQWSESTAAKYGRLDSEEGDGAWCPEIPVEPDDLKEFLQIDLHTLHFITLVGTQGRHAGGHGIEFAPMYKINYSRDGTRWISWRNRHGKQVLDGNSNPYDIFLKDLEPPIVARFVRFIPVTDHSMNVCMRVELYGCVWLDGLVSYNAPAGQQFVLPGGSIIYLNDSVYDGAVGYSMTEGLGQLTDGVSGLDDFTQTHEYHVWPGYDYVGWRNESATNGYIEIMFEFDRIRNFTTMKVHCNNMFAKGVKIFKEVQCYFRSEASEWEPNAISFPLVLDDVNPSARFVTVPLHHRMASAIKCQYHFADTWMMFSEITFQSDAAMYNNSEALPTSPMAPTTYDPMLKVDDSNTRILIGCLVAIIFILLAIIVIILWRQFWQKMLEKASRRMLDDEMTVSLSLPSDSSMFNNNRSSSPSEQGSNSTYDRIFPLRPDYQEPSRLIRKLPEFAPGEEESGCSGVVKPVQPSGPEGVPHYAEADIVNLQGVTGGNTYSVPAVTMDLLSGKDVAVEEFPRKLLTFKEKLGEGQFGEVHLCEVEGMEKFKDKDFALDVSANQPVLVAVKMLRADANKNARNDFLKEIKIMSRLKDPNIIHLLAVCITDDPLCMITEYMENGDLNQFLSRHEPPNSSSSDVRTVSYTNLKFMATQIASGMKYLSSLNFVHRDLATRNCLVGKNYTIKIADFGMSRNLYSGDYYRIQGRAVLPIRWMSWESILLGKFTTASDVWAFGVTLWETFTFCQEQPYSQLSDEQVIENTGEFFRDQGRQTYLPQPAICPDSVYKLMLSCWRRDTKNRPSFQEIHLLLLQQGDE
Source text: as §1

[7] = target: MAP4K4 (Homo sapiens, UniProt O95819); conditions: for MAP4K4 inhibition: 10 μM; for Residual activity: singlicate
Source text: as §1

[8] = target: PIM1 (Homo sapiens, UniProt P11309); conditions: for Residual activity: singlicate
Source text: as §1

ERBB2, sequence (P04626 23-1255): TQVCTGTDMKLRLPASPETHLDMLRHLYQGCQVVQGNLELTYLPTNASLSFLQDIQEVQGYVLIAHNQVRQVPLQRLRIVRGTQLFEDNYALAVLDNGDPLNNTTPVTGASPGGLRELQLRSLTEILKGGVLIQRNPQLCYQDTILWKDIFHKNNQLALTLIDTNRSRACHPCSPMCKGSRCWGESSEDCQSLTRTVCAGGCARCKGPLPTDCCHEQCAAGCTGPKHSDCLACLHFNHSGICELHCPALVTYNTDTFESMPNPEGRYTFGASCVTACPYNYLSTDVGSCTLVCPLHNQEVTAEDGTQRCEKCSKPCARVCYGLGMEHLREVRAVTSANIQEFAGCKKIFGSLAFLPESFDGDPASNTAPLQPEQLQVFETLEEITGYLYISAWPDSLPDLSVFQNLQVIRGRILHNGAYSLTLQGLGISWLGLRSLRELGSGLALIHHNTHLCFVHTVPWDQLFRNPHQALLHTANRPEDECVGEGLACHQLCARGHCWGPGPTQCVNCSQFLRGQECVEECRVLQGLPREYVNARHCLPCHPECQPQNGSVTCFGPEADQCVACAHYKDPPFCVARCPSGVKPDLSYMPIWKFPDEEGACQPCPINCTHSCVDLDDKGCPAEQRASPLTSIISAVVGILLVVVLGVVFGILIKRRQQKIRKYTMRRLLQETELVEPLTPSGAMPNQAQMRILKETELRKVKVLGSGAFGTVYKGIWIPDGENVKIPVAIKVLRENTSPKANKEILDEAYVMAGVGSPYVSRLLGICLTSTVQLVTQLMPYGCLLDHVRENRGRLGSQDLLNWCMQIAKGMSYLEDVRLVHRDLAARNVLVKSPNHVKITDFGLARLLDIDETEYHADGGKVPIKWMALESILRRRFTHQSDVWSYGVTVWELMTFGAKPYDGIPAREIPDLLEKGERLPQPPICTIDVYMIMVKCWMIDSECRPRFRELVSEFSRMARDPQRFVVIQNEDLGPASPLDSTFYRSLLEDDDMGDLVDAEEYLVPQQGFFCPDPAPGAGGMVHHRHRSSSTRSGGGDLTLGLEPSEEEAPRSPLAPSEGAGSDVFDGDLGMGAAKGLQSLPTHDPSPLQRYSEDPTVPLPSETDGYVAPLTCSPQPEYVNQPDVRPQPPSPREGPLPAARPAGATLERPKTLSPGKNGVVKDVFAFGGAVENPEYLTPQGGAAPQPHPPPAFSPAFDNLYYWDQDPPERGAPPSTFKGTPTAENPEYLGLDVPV
NIK, sequence (Q99558 whole entry): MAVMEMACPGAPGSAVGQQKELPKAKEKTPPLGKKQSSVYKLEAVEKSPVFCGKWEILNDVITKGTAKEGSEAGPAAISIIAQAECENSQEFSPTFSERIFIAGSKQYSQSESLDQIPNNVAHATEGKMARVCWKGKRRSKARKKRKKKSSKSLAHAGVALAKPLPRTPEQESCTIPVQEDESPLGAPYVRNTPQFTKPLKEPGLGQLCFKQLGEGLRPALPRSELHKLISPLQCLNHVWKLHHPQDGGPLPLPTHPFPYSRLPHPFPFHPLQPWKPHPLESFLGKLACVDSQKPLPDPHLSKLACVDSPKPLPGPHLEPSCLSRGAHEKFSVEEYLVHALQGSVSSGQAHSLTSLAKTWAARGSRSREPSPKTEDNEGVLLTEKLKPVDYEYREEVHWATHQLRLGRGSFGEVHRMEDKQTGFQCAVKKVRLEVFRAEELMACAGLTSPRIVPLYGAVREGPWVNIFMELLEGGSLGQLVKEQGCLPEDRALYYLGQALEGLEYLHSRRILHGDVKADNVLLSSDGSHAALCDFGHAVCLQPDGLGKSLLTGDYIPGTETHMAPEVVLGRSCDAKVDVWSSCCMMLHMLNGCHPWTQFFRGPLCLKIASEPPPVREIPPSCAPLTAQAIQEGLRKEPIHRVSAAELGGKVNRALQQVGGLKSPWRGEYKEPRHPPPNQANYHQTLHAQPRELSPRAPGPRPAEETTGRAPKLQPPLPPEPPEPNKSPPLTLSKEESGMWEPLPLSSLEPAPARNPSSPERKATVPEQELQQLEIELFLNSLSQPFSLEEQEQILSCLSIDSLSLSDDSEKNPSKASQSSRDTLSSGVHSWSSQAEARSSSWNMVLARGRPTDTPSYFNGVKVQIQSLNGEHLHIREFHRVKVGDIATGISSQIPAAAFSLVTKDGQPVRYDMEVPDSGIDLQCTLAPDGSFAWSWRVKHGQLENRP
PIM1, sequence (P11309 whole entry): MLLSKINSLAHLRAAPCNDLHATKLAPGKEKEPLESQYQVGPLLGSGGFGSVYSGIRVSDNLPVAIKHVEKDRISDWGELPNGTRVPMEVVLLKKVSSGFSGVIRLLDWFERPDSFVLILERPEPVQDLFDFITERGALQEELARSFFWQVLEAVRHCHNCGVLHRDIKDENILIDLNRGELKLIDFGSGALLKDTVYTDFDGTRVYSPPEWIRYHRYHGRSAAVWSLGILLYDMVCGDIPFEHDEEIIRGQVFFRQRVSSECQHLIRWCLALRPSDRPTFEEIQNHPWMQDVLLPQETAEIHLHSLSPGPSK
Aurora-B, sequence (Q96GD4 whole entry): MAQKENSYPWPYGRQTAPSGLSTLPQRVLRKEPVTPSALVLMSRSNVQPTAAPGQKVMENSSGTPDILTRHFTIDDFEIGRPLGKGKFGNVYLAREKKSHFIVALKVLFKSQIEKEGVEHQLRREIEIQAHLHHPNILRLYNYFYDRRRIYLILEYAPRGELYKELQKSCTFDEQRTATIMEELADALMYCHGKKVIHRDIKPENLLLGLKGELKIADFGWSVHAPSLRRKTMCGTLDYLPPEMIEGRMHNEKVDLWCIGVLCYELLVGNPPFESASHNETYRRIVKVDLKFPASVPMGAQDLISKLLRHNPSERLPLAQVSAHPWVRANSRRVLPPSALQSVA
RIPK2, sequence (O43353 whole entry): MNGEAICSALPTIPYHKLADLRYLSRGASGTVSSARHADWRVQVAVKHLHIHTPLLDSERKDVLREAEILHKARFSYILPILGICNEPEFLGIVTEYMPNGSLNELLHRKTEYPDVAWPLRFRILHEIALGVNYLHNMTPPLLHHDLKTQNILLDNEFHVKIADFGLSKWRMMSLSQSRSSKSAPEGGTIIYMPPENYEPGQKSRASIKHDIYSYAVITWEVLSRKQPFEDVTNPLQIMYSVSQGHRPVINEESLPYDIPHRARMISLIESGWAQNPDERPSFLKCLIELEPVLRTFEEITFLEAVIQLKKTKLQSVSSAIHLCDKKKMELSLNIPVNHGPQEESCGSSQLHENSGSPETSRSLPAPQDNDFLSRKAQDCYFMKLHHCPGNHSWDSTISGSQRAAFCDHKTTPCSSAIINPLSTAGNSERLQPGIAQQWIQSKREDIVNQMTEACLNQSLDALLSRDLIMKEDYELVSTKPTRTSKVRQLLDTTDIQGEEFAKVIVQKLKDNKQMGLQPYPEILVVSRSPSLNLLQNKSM
MAP4K4, sequence (O95819 whole entry): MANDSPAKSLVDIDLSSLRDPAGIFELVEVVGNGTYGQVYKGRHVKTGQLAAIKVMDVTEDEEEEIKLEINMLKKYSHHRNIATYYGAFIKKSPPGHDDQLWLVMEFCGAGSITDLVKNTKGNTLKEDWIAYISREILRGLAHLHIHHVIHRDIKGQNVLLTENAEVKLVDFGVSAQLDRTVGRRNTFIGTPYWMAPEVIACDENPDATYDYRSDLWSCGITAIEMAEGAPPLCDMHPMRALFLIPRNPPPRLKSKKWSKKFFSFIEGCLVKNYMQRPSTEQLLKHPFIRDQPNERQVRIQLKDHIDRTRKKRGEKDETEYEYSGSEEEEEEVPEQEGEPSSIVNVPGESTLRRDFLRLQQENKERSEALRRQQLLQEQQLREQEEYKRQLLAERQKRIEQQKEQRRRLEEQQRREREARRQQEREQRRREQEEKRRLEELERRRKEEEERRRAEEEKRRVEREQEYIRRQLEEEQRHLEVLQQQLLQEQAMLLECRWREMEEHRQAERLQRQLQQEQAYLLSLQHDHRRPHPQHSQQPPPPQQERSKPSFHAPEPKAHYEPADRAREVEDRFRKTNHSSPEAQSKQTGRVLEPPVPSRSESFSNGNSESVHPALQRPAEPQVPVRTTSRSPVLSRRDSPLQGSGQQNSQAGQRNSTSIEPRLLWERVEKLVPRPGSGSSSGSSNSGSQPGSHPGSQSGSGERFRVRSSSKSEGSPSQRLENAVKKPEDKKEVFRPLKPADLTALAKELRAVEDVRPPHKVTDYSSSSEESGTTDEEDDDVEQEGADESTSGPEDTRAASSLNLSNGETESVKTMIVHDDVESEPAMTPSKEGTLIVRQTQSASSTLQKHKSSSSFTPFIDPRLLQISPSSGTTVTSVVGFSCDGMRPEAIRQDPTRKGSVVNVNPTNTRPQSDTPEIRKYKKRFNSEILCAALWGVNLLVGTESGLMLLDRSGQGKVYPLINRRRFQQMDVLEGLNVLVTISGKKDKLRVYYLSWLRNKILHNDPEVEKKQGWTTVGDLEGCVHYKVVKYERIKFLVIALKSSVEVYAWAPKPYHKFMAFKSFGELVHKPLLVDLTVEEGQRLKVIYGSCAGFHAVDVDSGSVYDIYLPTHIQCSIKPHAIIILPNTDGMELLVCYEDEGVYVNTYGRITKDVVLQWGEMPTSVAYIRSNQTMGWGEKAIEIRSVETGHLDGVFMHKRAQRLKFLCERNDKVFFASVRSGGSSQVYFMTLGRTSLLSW

Compound | Residual activity ([1]; 1.0E-06 M) | Residual activity ([1]; 1.0E-07 M) | Residual activity ([2]; EPHA6, 1.0E-06 M) | Residual activity ([2]; EPHA6, 1.0E-07 M) | Residual activity ([3]; 1.0E-06 M) | Residual activity ([3]; 1.0E-07 M) | Residual activity, RIPK2 ([4]; assay conc. 1.0E-06 M) | Residual activity, RIPK2 ([4]; assay conc. 1.0E-07 M) | Residual activity ([5]; ERBB2, 1.0E-06 M) | Residual activity ([5]; ERBB2, 1.0E-07 M) | Residual activity ([6]; DDR2, 1.0E-06 M) | Residual activity ([6]; DDR2, 1.0E-07 M) | MAP4K4 inhibition [7] [%] | Residual activity ([7]; MAP4K4, 1.0E-06 M) | Residual activity ([7]; MAP4K4, 1.0E-07 M) | Residual activity ([8]; PIM1, 1.0E-06 M) | Residual activity ([8]; PIM1, 1.0E-07 M) | other results
C#Cc1cc(Nc2ncnc3cc(I)ccc23)ccc1Cl [Compound 41] | 30 % of control | 75 % of control | 75 % of control | 94 % of control | 120 % of control | 126 % of control | 96 % of control | 107 % of control | 78 % of control | 96 % of control | 81 % of control | 91 % of control | > 50 | 41 % of control | 73 % of control | 71 % of control | 85 % of control | Aurora-B inhibition ([1]; 10 μM): > 50%
C#Cc1cc(Nc2ncnc3cc(OC)c(OC)cc23)ccc1Cl [Compound 45] | 43 % of control | 91 % of control | 35 % of control | 89 % of control | 122 % of control | 127 % of control | 13 % of control | 59 % of control | 11 % of control | 44 % of control | 35 % of control | 87 % of control | > 50 | 48 % of control | 87 % of control | 38 % of control | 73 % of control | EPHA6 inhibition ([2]; 10 μM): > 50%; NIK inhibition ([3]; 10 μM): > 50%; RIPK2 inhibition ([4]; 10 μM): > 50%; ERBB2 inhibition ([5]; 1 μM): moderate inhibition; DDR2 inhibition ([6]; 10 μM): > 50%; PIM1 inhibition ([8]; 10 μM): > 50%
